Data from ChEMBL document CHEMBL4387776, “Discovery of novel 9H-purin derivatives as dual inhibitors of HDAC1 and CDK2” (Bioorg Med Chem Lett, 2019).

Key:
[1] = target: Histone deacetylase 1 (Homo sapiens, UniProt Q13547); test: Inhibition of recombinant human full-length C-terminal FLAG-tagged HDAC1 expressed in baculovirus expression system using Ac-peptide-AMC as substrate preincubated for 15 mins followed by substrate addition by fluorescence assay
[2] = target: CDK2/Cyclin A2 (Homo sapiens, UniProt P24941); test: Inhibition of wild-type human N-terminal GST-tagged CDK2/cycA2 expressed in Sf21 insect cells using FAM-labelled substrate preincubated for 10 mins followed by substrate addition and measured after 30 mins by fluorescence assay
[3] = test system: A549; test: Antiproliferative activity against human A549 cells measured after 72 hrs by CCK8 assay; type: functional, cell-based; details: A549, 72 h
[4] = test system: HepG2; test: Antiproliferative activity against human HepG2 cells measured after 72 hrs by CCK8 assay; type: functional, cell-based; details: HepG2, 72 h
[5] = test system: CAL-148; test: Antiproliferative activity against human CAL148 cells measured after 72 hrs by CCK8 assay; type: functional, cell-based; details: CAL-148, 72 h

Histone deacetylase 1, sequence (Q13547 whole entry): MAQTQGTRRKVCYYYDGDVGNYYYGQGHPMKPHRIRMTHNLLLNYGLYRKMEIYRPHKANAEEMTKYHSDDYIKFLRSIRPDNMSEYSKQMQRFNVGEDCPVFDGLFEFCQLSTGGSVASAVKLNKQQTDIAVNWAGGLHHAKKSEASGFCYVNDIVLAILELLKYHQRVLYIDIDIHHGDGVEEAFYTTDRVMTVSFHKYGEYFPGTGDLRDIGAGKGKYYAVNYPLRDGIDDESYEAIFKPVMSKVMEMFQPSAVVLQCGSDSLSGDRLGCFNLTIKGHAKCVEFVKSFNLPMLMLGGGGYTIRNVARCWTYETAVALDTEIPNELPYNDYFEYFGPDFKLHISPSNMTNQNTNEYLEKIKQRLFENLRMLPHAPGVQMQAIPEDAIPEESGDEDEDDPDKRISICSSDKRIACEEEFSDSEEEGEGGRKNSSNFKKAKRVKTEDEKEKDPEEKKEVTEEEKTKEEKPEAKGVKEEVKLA

Row | SMILES | IC50 [1] | IC50 [2] | IC50 [3] | IC50 [4] | IC50 [5]
1 | CC(C)n1cnc2c(NCc3cccc(/C=C/C(=O)NO)c3)nc(N3CCOCC3)nc21 | 7 nM | 127 nM | 1260 nM | 220 nM | 390 nM
2 | CCn1cnc2c(NCc3cccc(/C=C/C(=O)NO)c3)nc(N3CCOCC3)nc21 | 5.8 nM | 56 nM | 1490 nM | 770 nM | 1140 nM
3 | Cc1[nH]c2ccccc2c1CCNCc1ccc(/C=C/C(=O)NO)cc1 [PANOBINOSTAT] | – | – | 20 nM | < 100 nM | < 100 nM
4 | CC[C@H](CO)Nc1nc(NCc2ccccc2)c2ncn(C(C)C)c2n1 [SELICICLIB] | – | – | > 10000 nM | 15800 nM | > 10000 nM
